Measured values from PubChem BioAssay AID624491 (Broad Institute, 2012).

What follows are molecules tested on D54 ERlucT glycosylation luciferase reporter, luminescence, 24 h (assay: blockers of NLG process in reporter cells – D54 ERlucT cells, luminescence, cherry-picks, dose response (AID 624491);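 further: signal gain reflects blocked N-linked glycosylation of a luciferase reporter; actives raise luciferase signal so AC26 marks activators of the reporter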).

| SMILES | AC26 [nM] |
| --- | --- |
| CC(Nc1nc(-c2cccnc2)nc2ccccc12)c1ccccc1 (stereo not drawn) | 2830 |
| Cc1ccc(C)c(NC(=S)NC(NC(=O)Cc2cccc3ccccc23)C(Cl)(Cl)Cl)c1 (stereo not drawn) | 1270 |
| O=C(COc1ccc(C(=O)c2ccccc2)cc1)NCc1ccc(F)cc1 | 1870 |
| COc1cc2c(C#CCCO)c(-c3ccsc3)oc(=O)c2cc1OC | 226 |
| c1ccc(-c2cc(NCCN3CCCCC3)c3ccccc3n2)cc1 | 2910 |
| COCCCNC(=O)c1ccc(-c2c(C)noc2C)c2ccoc12 | 4060 |
| CC(=O)Nc1cccc(-c2ccnc3c2CC(C(=O)NCc2cccc(Cl)c2)O3)c1 (stereo not drawn) | 9220 |
| COc1ccc2c(c1)OC[C@H]1[C@H]2N2C(=O)c3ccc(F)cc3NC(=O)[C@@]2(C)[C@H]1c1ccccc1 | 1230 |
| CCc1ccc(N2CC(C(=O)Nc3ccccc3N3CCCC3)CC2=O)cc1 (stereo not drawn) | 5370 |
| CCC(Cc1ccccc1)NC(=O)c1ccc2nc(N3CCOCC3)sc2c1 (stereo not drawn) | 1250 |
| COC(=O)c1cc(OC)c(OC)cc1NC(=S)NC(=O)c1ccco1 | 607 |
| Cc1ccc(CSc2ccc3nnc(-c4cccnc4)n3n2)cc1 | 1170 |
| CC1(C)Cc2c(c(N3CCOCC3)nc3snc(N)c23)CO1 | 502 |
| COc1ccc(CNC(=O)C/C(C)=N/NC(=O)COc2ccc(C)cc2Br)cc1 | 5660 |
| O=C(NCc1ccco1)C1CC(c2ccc(C(F)(F)F)cc2)=NO1 (stereo not drawn) | 9730 |
| C=C(C)[C@@]12OC3(c4ccccc4)O[C@@H]1C1[C@@H]4O[C@]4(CO)[C@@H](O)[C@]4(O)C(=O)C(C)=C[C@H]4[C@@]1(O3)[C@H](C)[C@H]2OC(=O)/C=C/C=C/c1ccccc1 (stereo partly drawn) | < 1.2 |
| CCOc1nc(N=C(N)N)nc2c(C)cccc12 | 2480 |
| Cc1ccc(O)c(C(=O)C=Cc2ccccc2)c1 | 1210 |
| CC[C@H](C)C(=O)O[C@H]1C[C@@H](C)C=C2C=C[C@H](C)[C@H](CC[C@@H]3C[C@@H](O)CC(=O)O3)[C@H]21 | 301 |
| CCc1nc2ccc(C(=O)NCCc3c[nH]c4ccccc34)cn2c1N(C=O)CCC(C)C | 343 |
| Cc1nc2ncccn2c1-c1csc(Nc2ccc(N(C)C)cc2)n1 | 31.5 |
| CN(C)CCCN1C(=O)c2cccc3c([N+](=O)[O-])ccc(c23)C1=O | 169 |
| O=C(Nc1ccccc1O)c1ccc(NS(=O)(=O)c2cccc3cccnc23)cc1 | 3930 |
| Cc1cc2nnc(SCC(=O)NCc3ccco3)n2c2ccccc12 | 1360 |
| Cc1cc(NCCCn2ccnc2)n2nc(C)c(-c3ccccc3)c2n1 | 1170 |
| CC(=O)N(C1=C(Cl)C(=O)c2ccccc2C1=O)C1CCCCC1 | 31.1 |
| Cc1ccc(-c2nn3c(C)nnc3s2)cc1NCc1c(F)cccc1Cl | 7650 |

| SMILES | AC26 [nM] |
| --- | --- |
| CCOc1ccc2cc(/C=C/C(=O)c3ccco3)c(Cl)nc2c1 | 3060 |
| CCCOc1ccccc1C1CC(=O)NC2=C1C(=O)CCC2 (stereo not drawn) | 2250 |
| Cc1ccc(C(=O)N/C(=C\c2cccs2)C(=O)NCCc2c[nH]c3ccccc23)cc1 | 378 |
| Cc1cc(C)nc(SC2=CS(=O)(=O)c3ccccc32)n1 | 4210 |
| O=C(N/N=C/c1c[nH]c2ccccc12)C1COc2ccccc2O1 (stereo not drawn) | 1310 |
| C[C@@]12C(=O)Nc3ccc(Br)cc3C(=O)N1[C@H]1c3ccccc3OC[C@@H]1[C@@H]2c1ccccc1 | 368 |
| CC(=O)Nc1cccc(-c2ccnc3c2CC(C)(C(=O)NCc2cccs2)O3)c1 (stereo not drawn) | 1450 |
| Cc1nnc2c(NCCC(C)C)nc3ccccc3n12 | 6080 |
| CC(/C=N/NC(=O)c1cc(-c2ccccc2)nc2ccccc12)=C\c1ccco1 | 2040 |
| O=c1c2ccccc2sc2c(CO)ccc(NCCN3CCCCC3)c12 | 705 |
| COc1cc2c3c(cccc3c1)C(=O)N(CCN1CCCC1)C2=O | 200 |
| CC1CN(C(=O)c2ccc(COc3ccc4ccccc4c3)o2)CC(C)O1 (stereo not drawn) | 11200 |
| N#Cc1c(N)n(CCc2ccc(F)cc2)c2nc3ccccc3nc12 | 1590 |
| COc1cccc(-c2nn(C)c3sc(C(=O)NCc4ccco4)cc23)c1 | 3620 |
| CC(C)CCN(C(=O)Cc1ccc(Cl)c(Cl)c1)c1c(N)n(Cc2ccccc2)c(=O)[nH]c1=O | 2080 |
| COc1ccc2nc(C)cc(Nc3ccc(N4CCOCC4)cc3)c2c1 | 1260 |
| Cc1noc(C)c1-c1ccc(C(=O)NCc2cccnc2)c2occc12 | 4700 |
| COc1ccc(Cl)cc1NC(=O)Nc1ccc(C(=O)N2CCCC2)cc1 | 4030 |
| COc1cccc(/C=C2\SC(=S)N(CCC(=O)N3CCCCC3)C2=O)c1 | 5770 |
| O=C(Nc1cccc(-c2cn3ccccc3n2)c1)c1cccc(Cl)c1 | 1750 |
| Cc1cc(C)c2c(N)c3ccccc3nc2n1 | 762 |
| Cc1ccc(NC(=O)c2cc(S(=O)(=O)N(C)C)ccc2N2CCCC2)cc1S(=O)(=O)N(C)C | 276 |
| O=C(CN1CCC(O)(c2cccc(F)c2)CC1)NCCc1c[nH]c2ccccc12 | 1150 |
| Cc1cc(C)nc(N2Cc3ccccc3C2=N)n1 | 4560 |
| CN(C)/N=C/C=C1\CCC/C(=C\c2ccc(F)c(F)c2)C1=O | 966 |
| Cc1ccc(NC2=NC3(CCCC3)N=C(N)N2)c(C)c1 | 4230 |
